Data from patent US20100221763A1, “Specific Acceptors for Transferases to Saccharides and Method for Obtaining and Using Same” (Health Research, Inc, priority 2005, published 2010).
Values joined by “and” are separate entries in the source; they are usually repeats but may differ in a detail not shown here. Identical values can stand only once.

Tests used:
[1] = biological target: T1, Rat recombinant α2,3(N)ST (Rattus norvegicus, UniProt Q02734); experiment: Sialyltransferase assay with cloned α2,3(N)ST; type: biochemical; conditions: for Sialyltransferase activity (%) Cloned α2,3(N)ST: Table I, acceptor 7.5 mM, 100% = 29520 CPM (Galβ1,4GlcNAcβ-O—Al)
T1 construct: purchased Calbiochem
T1 sequence (Q02734 29-374 limits assumed): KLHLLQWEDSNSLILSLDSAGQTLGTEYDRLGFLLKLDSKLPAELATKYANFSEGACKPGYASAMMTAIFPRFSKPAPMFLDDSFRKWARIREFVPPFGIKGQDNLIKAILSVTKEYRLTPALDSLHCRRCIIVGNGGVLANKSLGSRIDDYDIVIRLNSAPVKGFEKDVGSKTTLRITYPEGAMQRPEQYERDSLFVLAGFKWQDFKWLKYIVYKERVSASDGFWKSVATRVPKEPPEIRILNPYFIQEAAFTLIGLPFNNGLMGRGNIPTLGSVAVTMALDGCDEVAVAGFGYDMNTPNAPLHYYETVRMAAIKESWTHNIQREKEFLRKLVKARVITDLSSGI
Procedure: (§1) Rat recombinant α2,3(O)ST, α2,3(N)ST and α2,6(N)ST were purchased from Calbiochem and stored at either −20° C. or −70° C. as recommended by the supplier. […] 10 μl aliquots of the diluted enzymes were used in the assays run in duplicate.
(§2) The incubation mixtures run in duplicate contained 0.1M NaCacodylate buffer pH6.0, the acceptor (typically at 7.5 mM, or as indicated in some experiments), CMP-[9 ^3H] NeuAc (typically 0.2 μci; 20 μci/nmol or as indicated in some experiments) and the enzyme in a total volume of 20 μl. The control incubation mixtures contained everything except the acceptor. Incubation was carried out for 2 h at 37° C. The enzymatic transfer of [9-^3H] NeuAc to a typical acceptor was linear for 2 h and less than 30% CMP-[9-^3H] NeuAc was utilized. Chromatography, using either Dowex-1-Formate, Sep-Pak C18 or Biogel P2, was applied to separate radioactive product from un-reacted [9-^3H] NeuAc as described below.
(§3) The radioactive products from neutral allyl and methyl glycosides as well as non-glycosides were measured by fractionation on Dowex-1-Formate (Bio-Rad: AG-1X8; 200-400 mesh; format form) as follows: The incubation mixture was diluted with 1.0 ml water and passed through AG-1-formate column (1.0 ml bed volume in a Pasteur pipet which had been washed with 5 ml of 2M Formic acid followed by 10 ml water). The column was washed twice with 1.0 ml water after the entry of the sample and then eluted with 3.0 ml of 0.1M NaCl. The radioactivity present in water and 0.1M NaCl eluates were measured separately using 3a70 scintillation cocktail (Research Products International, Mount Prospect, Ill.) and a Beckman LS6500 scintillation counter. The CPM values were corrected by subtracting the blank CPM. Any radioactivity present in the water eluate (as noticed in the case of some methylglycosides) was added to the corresponding CPM value of 0.1M NaCl eluate. The radioactive products from sulfated and/or sialylated methylglycosides were also measured by the above procedure, only the elution of the AG-1-Formate column was continued further with 3.0 ml of 0.2M NaCl for achieving a complete elution of the radioactive product, a correction being made as before by subtracting the corresponding blank values.
(§4) The radioactive products from benzylglycosides and monosialylated benzylglycosides were measured by hydrophobic chromatography on Sep-Pak C18 cartridge (Waters, Milford, Mass.) and eluting the product with 3.0 ml methanol (30). The radioactivity was determined by liquid scintillation as above.
(§5) For such work, a Biogel P2 column (Fine Mesh; 1.0×116.0 cm) was used with 0.1M pyridine acetate pH5.4 as the eluent at room temperature. The effluent fractions were monitored for radioactivity and the first peak containing radioactivity was collected, lyophilized to dryness, dissolved in 200 μl of water and stored frozen at −20° C. for thin layer chromatography (TLC) and other experimentation.

[2] = biological target: T2, Rat recombinant α2,6(N)ST (Rattus norvegicus, UniProt P13721); experiment: Sialyltransferase assay with cloned α2,6(N)ST; type: biochemical; conditions: for Sialyltransferase activity (%) Cloned α2,6(N)ST: Table I, acceptor 7.5 mM, 100% = 43500 CPM (Galβ1,4GlcNAcβ-O—Al)
T2 construct: purchased Calbiochem
T2 sequence (P13721 1-403): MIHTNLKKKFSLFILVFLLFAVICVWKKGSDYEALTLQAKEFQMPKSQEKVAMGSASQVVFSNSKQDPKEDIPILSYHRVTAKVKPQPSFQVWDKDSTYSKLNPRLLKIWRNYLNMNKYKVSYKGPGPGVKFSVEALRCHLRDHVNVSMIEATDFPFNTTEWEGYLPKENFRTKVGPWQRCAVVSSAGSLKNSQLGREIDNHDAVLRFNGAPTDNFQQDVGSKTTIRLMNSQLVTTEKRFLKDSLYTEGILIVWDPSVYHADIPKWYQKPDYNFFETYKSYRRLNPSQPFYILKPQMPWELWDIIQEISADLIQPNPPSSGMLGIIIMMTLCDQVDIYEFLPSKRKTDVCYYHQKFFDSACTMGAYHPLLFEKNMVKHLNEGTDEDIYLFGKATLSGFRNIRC
Procedure: as §1, §2, §3, §4, §5

[3] = biological target: T3, Rat recombinant α2,3(O)ST (Rattus norvegicus, UniProt Q11205); experiment: Sialyltransferase assay with cloned α2,3(O)ST; type: biochemical; conditions: for Km / Vmax: CMP-NeuAc 150 μM, Lineweaver-Burke plot
T3 construct: purchased Calbiochem
T3 sequence (Q11205 1-350): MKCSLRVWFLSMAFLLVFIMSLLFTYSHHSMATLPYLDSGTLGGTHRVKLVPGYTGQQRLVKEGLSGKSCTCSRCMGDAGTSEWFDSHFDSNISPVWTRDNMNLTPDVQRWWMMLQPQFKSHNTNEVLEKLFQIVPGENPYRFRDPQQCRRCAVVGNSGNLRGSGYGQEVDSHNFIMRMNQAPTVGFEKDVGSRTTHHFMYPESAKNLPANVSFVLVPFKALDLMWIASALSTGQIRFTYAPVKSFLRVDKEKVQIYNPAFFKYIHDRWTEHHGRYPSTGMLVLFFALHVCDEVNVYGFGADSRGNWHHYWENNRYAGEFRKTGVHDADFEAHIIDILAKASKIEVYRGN
Procedure: as §1, §2, §3, §4, §5

LNCaP α2,3(O)ST = experiment: Sialyltransferase assay with LNCaP cell extract; type: biochemical, human
Procedure: The prostate carcinoma cell line, LNCaP, was grown in RPMI 1640 supplemented with 10% fetal bovine serum and antibiotics (penicillin, streptomycin and amphotericin B) under conditions recommended by American Type Culture Collection (Manassas, Va.). The cells were homogenized with 0.1M Tris-Maleate pH6.3 containing 2% Triton X-100 using a Dounce all glass hand-operated homogenizer. The homogenate was centrifuged at 16,000 g for 1 h at 4° C. Protein concentration in supernatant was measured using the BCA assay (Pierce Biotech, Inc., Rockford, Ill.), with BSA as the standard. The supernatant was adjusted to 5 mg protein/ml by adding the necessary amount of extraction buffer and then stored frozen at −20° C. until use. 10 μl aliquot of this extract was used in assays run in duplicate.
as §2, §3, §4, §5

[4] = Table II, acceptor 0.75 mM, relative to Galβ1,3GalNAcα-O-Bn
[5] = Table II, acceptor 7.5 mM, relative to Galβ1,3GalNAcα-O-Bn

For `CC(=O)N[C@H]1[C@H](OC[C@H]2O[C@H](OCc3ccccc3)[C@H](NC(C)=O)[C@@H](O[C@@H]3O[C@H](CO)[C@H](O)[C@H](O)[C@H]3O)[C@H]2O)O[C@H](CO)[C@@H](O[C@@H]2O[C@H](CO)[C@H](F)[C@H](O)[C@H]2O)[C@@H]1O` [4-FGalβ1,4GlcNAcβ1,6(Galβ1,3)GalNAcα-O-Bn], the “Cloned Sialyltransferase Activities α2,3(N) ST %” value ([1]; Table III, compound 7.5 mM, 100% = 38140 CPM (Galβ1,4GlcNAcβ1,6(3-O-MeGalβ1,3)GalNAcα-O-Bn)) was 7.9%, the “Cloned Sialyltransferase Activities α2,6(N)ST %” value ([2]; Table III, compound 7.5 mM, 100% = 30440 CPM (Galβ1,4GlcNAcβ1,6(3-O-MeGalβ1,3)GalNAcα-O-Bn)) was 2.7% and the “Cloned Sialyltransferase Activities α2,3(O) ST %” value ([3]; Table III, compound 7.5 mM, 100% = 39200 CPM (3-O-MeGalβ1,4GlcNAcβ1,6(Galβ1,3)GalNAcα-O-Bn)) was 102.1%.

`CO[C@H]1O[C@H](CO[C@@H]2O[C@H](COS(=O)(=O)O)[C@@H](O[C@@H]3O[C@H](CO)[C@H](O)[C@H](O)[C@H]3O)[C@H](O)[C@H]2NC(C)=O)[C@H](O)[C@H](O[C@@H]2O[C@H](CO)[C@H](O)[C@H](O[C@]3(C(=O)O)C[C@H](O)[C@@H](NC(C)=O)[C@H]([C@H](O)[C@H](O)CO)O3)[C@H]2O)[C@H]1NC(C)=O` [Galβ1,4(6-O-Sulfo)GlcNAcβ1,6(NeuAcα2,3Galβ1,3)GalNAcα-O-Me] was tested, and the “Sialyltransferase activity (%) Cloned α2,3(N)ST” value [1] was 50.8% and 50.8^22%, the “Sialyltransferase activity (%) Cloned α2,3(N)ST” value ([1]; listed as Galβ1,4(6-O-Sulfo)GlcNAcβ1,6(NeuAcα2,3Galβ1,3)GalNAcα-) was 50.8% and the “Sialyltransferase activity (%) Cloned α2,6(N)ST” value [2] was 0.9%.

In the case of `CC(=O)N[C@H]1[C@H](OC[C@H]2O[C@H](OCc3ccccc3)[C@H](NC(C)=O)[C@@H](O[C@@H]3O[C@H](CO)[C@H](O)[C@H](O[C@@]4(C(=O)O)C[C@H](O)[C@@H](NC(C)=O)[C@H]([C@H](O)[C@H](O)CO)O4)[C@H]3O)[C@H]2O)O[C@H](CO)[C@@H](O[C@@H]2O[C@H](CO)[C@H](O)[C@H](O)[C@H]2O)[C@@H]1O[C@@H]1O[C@@H](C)[C@@H](O)[C@@H](O)[C@@H]1O` [Galβ1,4(Fucα1,3)GlcNAcβ1,6(NeuAcα2,3Galβ1,3)GalNAcα-O-Bn], the “Sialyltransferase activity (%) Cloned α2,3(N)ST” value [1] is reported as 27.1%.

With `CO[C@H]1O[C@H](CO[C@@H]2O[C@H](COS(=O)(=O)O)[C@@H](O[C@@H]3O[C@H](CO)[C@H](O)[C@H](O)[C@H]3O)[C@H](O[C@@H]3O[C@@H](C)[C@@H](O)[C@@H](O)[C@@H]3O)[C@H]2NC(C)=O)[C@H](O)[C@H](O[C@@H]2O[C@H](CO)[C@H](O)[C@H](O[C@]3(C(=O)O)C[C@H](O)[C@@H](NC(C)=O)[C@H]([C@H](O)[C@H](O)CO)O3)[C@H]2O)[C@H]1NC(C)=O` [Galβ1,4(6-O-Sulfo)(Fucα1,3)GlcNAcβ1,6(NeuAcα2,3Galβ1,3)GalNAcα-O-Me] the “Sialyltransferase activity (%) Cloned α2,3(N)ST” value [1] was 1.7% and the “Sialyltransferase activity (%) Cloned α2,6(N)ST” value [2] was 0%.

For `CO[C@H]1O[C@H](CO[C@@H]2O[C@H](CO)[C@@H](O[C@@H]3O[C@H](CO)[C@H](O)[C@H](O)[C@H]3NC(C)=O)[C@H](O[C@@H]3O[C@@H](C)[C@@H](O)[C@@H](O)[C@@H]3O)[C@H]2NC(C)=O)[C@H](O)[C@H](O[C@@H]2O[C@H](CO)[C@H](O)[C@H](O)[C@H]2O)[C@H]1NC(C)=O` [GalNAcβ1,4(Fucα1,3)GlcNAcβ1,6(Galβ1,3)GalNAcα-O-Me], the “Sialyltransferase activity (%) LNCaP α2,3(O)ST” value (LNCaP α2,3(O)ST; Table I, acceptor 7.5 mM, 100% = 30930 CPM (3-O-MeGalβ1,4GlcNAcβ1,6(Galβ1,3)GalNAcα-O-Bn)) was 21.1% and the “Sialyltransferase activity (%) Cloned α2,3(O)ST” value ([3]; Table I, acceptor 7.5 mM, 100% = 40560 CPM (3-O-MeGalβ1,4GlcNAcβ1,6(Galβ1,3)GalNAcα-O-Bn)) was 134.9%.

For `CC(=O)N[C@H]1[C@@H](OCc2ccccc2)O[C@H](CO)[C@H](O)[C@@H]1O[C@@H]1O[C@H](CO)[C@H](F)[C@H](O)[C@H]1O` [4-F-Galβ1,3GalNAcα-O-Bn], the “Sialyltransferase activity (%) LNCaP α2,3(O)ST” value (LNCaP α2,3(O)ST; [4]) was 44.8%, the “Sialyltransferase activity (%) LNCaP α2,3(O)ST” value (LNCaP α2,3(O)ST; [5]) was 105.1% and the Km [3] was 250 µM. For the same compound, the Vmax [3] was 1442 pmol/h, the “Sialyltransferase activity (%) Cloned α2,3(O)ST” value [3, 4] was 104.6^10% and the “Sialyltransferase activity (%) Cloned α2,3(O)ST” value [3, 5] was 102.3^10%.

In the case of `CO[C@@H]1[C@H](O)[C@@H](O)[C@H](O[C@H]2[C@@H](O)[C@@H](CO)O[C@H](OCc3ccccc3)[C@@H]2NC(C)=O)O[C@@H]1CO` [4-O-MeGalβ1,3GalNAcα-O-Bn], the “Sialyltransferase activity (%) LNCaP α2,3(O)ST” value (LNCaP α2,3(O)ST; [4]) is reported as 141.5%, the “Sialyltransferase activity (%) LNCaP α2,3(O)ST” value (LNCaP α2,3(O)ST; [5]) is reported as 188.7% and the Km [3] is reported as 130 µM. The Vmax [3] was 1250 pmol/h, the “Sialyltransferase activity (%) Cloned α2,3(O)ST” value [3, 4] was 104.6^9% and the “Sialyltransferase activity (%) Cloned α2,3(O)ST” value [3, 5] was 105.0^9%.

With `COC[C@H]1O[C@H](OCc2ccccc2)[C@H](NC(C)=O)[C@@H](O[C@@H]2O[C@H](CO)[C@H](O)[C@H](O)[C@H]2O)[C@H]1O` [Galβ1,3(6-O-Me)GalNAcα-O-Bn] the “Sialyltransferase activity (%) LNCaP α2,3(O)ST” value (LNCaP α2,3(O)ST; [4]) was 119.2%, the “Sialyltransferase activity (%) LNCaP α2,3(O)ST” value (LNCaP α2,3(O)ST; [5]) was 189.4% and the “Sialyltransferase activity (%) Cloned α2,3(O)ST” value [3, 4] was 107.6^11%. The “Sialyltransferase activity (%) Cloned α2,3(O)ST” value [3, 5] was 107.3^11%.

For `CO[C@H]1[C@H](O[C@H]2[C@H](O)[C@@H](CO)O[C@@H](OCc3ccccc3)[C@@H]2NC(C)=O)O[C@H](CO)[C@H](O)[C@@H]1O` [2-O-MeGalβ1,3GlcNAcβ-O-Bn], the “Sialyltransferase activity (%) Cloned α2,6(N)ST” value [2] was 0%.
